Entries after “also recorded” stand apart in the source; their conditions may differ.
Key:
[1] = test system: NO, SOD and MDA in synovial liquid; test: Biochemical indicators (NO, SOD, MDA) in synovial liquid of the rabbit model; format: in vivo, New Zealand white rabbits
Excerpt: As used in the present invention, all of the methods for measuring SOD, NO and MDA in synovial liquid and collagen and proteoglycan in extracellular matrix of cartilage have been known and conventionally used in the art.
(§1) Fifteen (15) healthy adult New Zealand white rabbits were randomly divided into three (3) groups: a normal control group (Group A), a model control group (Group B) and a test group subject to intra-articular injection of a test peptide (Group C), with five (5) rabbits included in each of the groups. Fasting was conducted within four hours before surgical operations. Ketamine (10 mg/kg) and atropine (0.2 mg/kg) were injected in the muscle of each rabbit. After anesthesia took effect, each rabbit was confined to an operating table. An 8 cm-long longitudinal scission was made in the back of each knee before the skin was lifted. From the back of the knee, the articular capsule and synovial were opened. Then, the knee was bent for 90° to expose the cartilage at a lower end of the femur. Two cylindrical cutouts of 3 mm in diameter and 3 mm in depth were made. Coagulation was removed from each of the cutouts. The joint cavity was washed with a sterile saline solution. Stitches were made for each section. After the surgical operation, injection of penicillin was conducted against infection for a week. After five (5) days, each rabbit was able to eat and stand normally.
(§2) Two (2) weeks after the surgical operation, the rabbits of Group A and Group B were not treated, whereas the rabbits of Group C were subject to intra-articular injection of 250 ppm/kg of pentapeptide-3 KTTKS once for every seven (7) days, and the injection lasted for twelve (12) weeks. Articular injection of 0.5 ml of saline was executed, and then 0.2 ml of synovial liquid was collected. The articular capsule was cut and opened, synovial was removed, and an entire tibial joint was taken. Arthropathy in arthrodial cartilage was observed by bare eyes and also via surgical lens. Slices were taken, dyed by hematoxylin and eosin stain (HE Stain) and toluidine blue, and then observed in an optical microscope.

[2] = test system: cartilage cells of the growth plate; test: Cultivated cartilage cells: DNA content, collagen and proteoglycan production; format: cell-based, rabbits; conditions: 250 ppm; samples after 3, 7 and 14 days
Method: Firstly, cartilage cells of the growth plate of the same rabbits were taken and continuously cultivated. The cultivated cells were divided into three groups. In Group I, only 250 ppm of pentapeptide-3 KTTKS was added. In Group II, only 100 ng/ml of collagen was added. In Group III, 250 ppm of pentapeptide-3 KTTKS and 100 ng/ml of collagen were added. A negative control group was also used. After new tissues of cartilage grew at a lower portion of a centrifuge tube, the new tissues were transferred to a 24-well platefor continuing cultivation, wherein the culture medium was replaced for every 2 days. During the cultivation, samples were collected after three (3), seven (7) and fourteen (14) days, and then were analyzed.
For the histological and histochemical measurements, samples were collected, and HE dying and immunochemical measurement (S-P method) were executed.
The content of DNA in the cells of cartilage was determined by the method of Hoechst 33258.
Extracellular matrix of cartilage primarily comprises collagen and proteoglycan composed of glycosaminoglycan and core protein, in addition to water. The content of the matrix and its status of the metabolism were quantitatively analyzed by determining a level of the collagen and proteoglycan in the new tissues of cartilage.
The synthesis of the collagen of the cartilage is measured by the hydroxyproline method. Because the content of hydroxyproline in the collagen was substantially constant (about 10% by weight), an amount of hydroxyproline could be used to analyze the amount of the collagen of the cartilage by using a commercial kit including the hydroxyproline reagent. The content of the collagen in the samples was calculated.

[3] = test system: arthrodial cartilage of the knee joint; test: Rabbit knee cartilage injury model: observation by bare eyes and histomorphometry; format: in vivo, New Zealand white rabbits; conditions: intra-articular 250 ppm/kg once every 7 days
Method: as §1, §2

[4] = Group C: intra-articular injection of 250 ppm/kg once every 7 days for 12 weeks
[5] = intra-articular 250 ppm/kg once every 7 days, 12 weeks

pentapeptide-3 KTTKS (printed: Lys-Thr-Thr-Lys-Ser) [pentapeptide Lys-Thr-Thr-Lys-Ser; test peptide injected intra-articularly in Group C]
MDA level in synovial liquid [1, 4]: 15.23 ± 5.62 c/mol · L^−1
NO level in synovial liquid [1, 4]: 25.11 ± 3.65 c/mol · L^−1
SOD level in synovial liquid [1, 4]: 6.18 ± 2.17 c/mol · L^−1
Change of MDA level in synovial liquid compared with model control Group B [1, 5]: considerably reduced
Change of SOD level in synovial liquid compared with model control Group B [1, 5]: considerably increased
Content of DNA of the cells of the cartilage versus control group (Hoechst 33258, FIG. 1) [2]: statistically different from that of the control group
Hyperosteogeny of the cells of the cartilage [2]: considerable hyperosteogeny
Production of collagen in cartilage tissue (hydroxyproline method, FIG. 2) [2]: considerably increased
Production of proteoglycan of cartilage tissue (FIG. 3) [2]: considerably increased
Histomorphometric observation of repaired tissues (HE stain, toluidine blue) ([3]; after 12 weeks): the repaired tissues were not substantially different from the normal tissues of the knee joint; also recorded: considerably repaired the damaged tissues of cartilage
Repair of knee joint injuries observed by bare eyes ([3]; after 12 weeks): the injuries were completely repaired
Morphosis of the arthrodial cartilage compared with model control Group B ([3]; 12 weeks): significant improvement

— patent US20180194805A1, “USE OF PENTAPEPTIDE-3 KTTKS OR HEXAPEPTIDE-3 KTTKSF FOR TREATING DEGENERATIVE JOINT DISEASE” (Advanced Healthtech Biopeptide Laboratories Co., LTD., priority 2017, published 2018)
